Data reported in patent publication US11261209B2, “Enhanced coupling of stereodefined oxazaphospholidine phosphoramidite monomers to nucleoside or oligonucleotide” (Roche Innovation Center Copenhagen A/S, priority 2016, dated 2022).
Entries after “also recorded” stand apart in the source; their conditions may differ.

Legend:
[1] = Solubility of oxazaphospholidine phosphoramidite monomers in solvent, visual examination; assay type: physicochemical; conditions: for Soluble after: 0 h MeCN + 2.5% pyridine / Soluble after: 0 h MeCN / Soluble after: 24 h MeCN + 2.5% pyridine / Soluble after: 24 h MeCN: 0.013 mmol amidite in 0.13 mL, room temperature; for Solubility after 24 hours in MeCN with addition of pyridine: MeCN with addition of pyridine (2.5%)
Description: To a 1.5 mL vial was added 0.013 mmol of amidite after which the solid material was dissolved in 0.13 mL of solvent. Hereafter, the vial was capped, vortexed, and finally left at room temperature for 24 hours. Then, the dissolved material was visually examined regarding the solubility (FIG. 1). If the solution appeared cloudy or otherwise non-homogenous the solubility was set to “no”. If the solution appeared completely homogenous the solubility was set to “yes” (examination repeated after 24 hours).
Solubility of the following monomers was determined as per example 7.

[2] = Stability of amidite in solution by HPLC-MS (UV 254 nm, normalised to 0 hours); assay type: physicochemical
Description: Stability Determination Method: To complete the analysis the stability of the amidite was investigated using an Agilent 1100 series HPLC-MS with a gradient from 80% A (1% NH4OH in H2O) to 100% B (20% A in MeCN) and a Waters Xterra MS C18 2.1×100 mm column. The mass and UV peak of the mother compound was identified at 0 hours and at 24 hours. Hereafter, the relative stability compared to other by-products was reported by integrating the UV chromatogram (254 nm) and normalizing the area to the chromatogram recorded at 0 hours (FIG. 2).
To a 1.5 mL vial was added 0.013 mmol of amidite after which the solid material was dissolved in 0.13 mL of solvent (with and without Et3N, approximately 5-10 eq). Hereafter, the vial was capped, vortexed, and finally left at room temperature for 24 hours. To investigate the stability of the amidite an Agilent 1100 series HPLC-MS with a gradient from 80% A (1% NH4OH in H2O) to 100% B (20% A in MeCN) and a Waters Xterra MS C18 2.1×100 mm column was used. The mass and UV peak of the mother compound was identified at 0 hours and at 24 hours. Hereafter, the relative stability compared to other by-products was reported. This was again repeated after 48 hours.

SMILES | Soluble after: 0 h MeCN + 2.5% pyridine [1] | Soluble after: 0 h MeCN ([1]; MeCN) | Soluble after: 24 h MeCN + 2.5% pyridine [1] | Soluble after: 24 h MeCN ([1]; MeCN) | further results
COc1ccc(C(OC[C@H]2O[C@@H](n3cc(C)c(=O)[nH]c3=O)C[C@@H]2O[P@]2O[C@@H](c3ccccc3)[C@H]3CCCN32)(c2ccccc2)c2ccc(OC)cc2)cc1 [D-DNA T] | Yes | Yes | Yes | No | –
COc1ccc(C(OC[C@@]23CO[C@@H]([C@H](n4cnc5c(=O)[nH]c(NC(=O)C(C)C)nc54)O2)[C@@H]3O[P@]2O[C@H](c3ccccc3)[C@@H]3CCCN32)(c2ccccc2)c2ccc(OC)cc2)cc1 [L-LNA-G-iBu] | Yes | Yes | Yes | – | Solubility in all solvents investigated ([1]; all solvents investigated (12 different)): soluble
COc1ccc(C(OCC23COC(C(n4cnc5c(NC(=O)c6ccccc6)ncnc54)O2)C3OP2OC(c3ccccc3)C3CCCN32)(c2ccccc2)c2ccc(OC)cc2)cc1 [L-LNA A] | – | – | – | – | Stability in MeCN with Et3N after 24 hours ([2]; MeCN + Et3N approximately 5-10 eq, 24 hours): completely stable; Stability in MeCN with Et3N after 48 hours ([2]; MeCN + Et3N approximately 5-10 eq, 48 hours): majority of the L-LNA A is preserved; Stability in MeCN after 24 hours ([2]; MeCN only, 24 hours, room temperature): most of the L-LNA A was degraded; Stability in MeCN after 48 hours ([2]; MeCN only, 48 hours, room temperature): completely degraded
COc1ccc(C(OCC23COC(C(n4cnc5c(=O)[nH]c(N=CN(C)C)nc54)O2)C3OP2OC(c3ccccc3)C3CCCN32)(c2ccccc2)c2ccc(OC)cc2)cc1 [L-LNA G-DMF] | No | No | No | No | Solubility in most solvents ([1]; MeCN, MeCN:DCE, MeCN:Tol, MeCN:acetone, Dioxane, and THF): unsoluble; Solubility in remaining solvents ([1]; MeCN:DCM, DMF, DMSO, NMP, DCM, DCE, and Toluene): soluble; Solubility in acetonitrile solvents ([1]; acetonitrile solvents): poorly soluble; Amidite left after 24 hours ([2]; DCM (best solvent), 24 hours, room temperature): 10%; Stability in the solvents where the monomer is soluble ([2]; MeCN:DCM, DMF, DMSO, NMP, DCM, DCE, and Toluene, 24 hours): tremendous instability
COc1ccc(C(OCC23COC(C(n4cc(C)c(=O)[nH]c4=O)O2)C3OP2OC(c3ccccc3)C3CCCN32)(c2ccccc2)c2ccc(OC)cc2)cc1 [D-LNA T] | Yes | Yes | Yes | Yes | –
COc1ccc(C(OC[C@H]2O[C@@H](n3ccc(NC(C)=O)nc3=O)C[C@@H]2O[P@]2O[C@@H](c3ccccc3)[C@H]3CCCN32)(c2ccccc2)c2ccc(OC)cc2)cc1 [D-DNA C] | Yes | Yes | Yes | No | –
COc1ccc(C(OC[C@H]2O[C@@H](n3cnc4c(NC(=O)c5ccccc5)ncnc43)C[C@@H]2O[P@@]2O[C@H](c3ccccc3)[C@@H]3CCCN32)(c2ccccc2)c2ccc(OC)cc2)cc1 [L-DNA A] | Yes | Yes | Yes | No | Solubility after 24 hours in MeCN with addition of pyridine [1]: solubility of the monomer is preserved; also recorded: kept in solution; Solubility after 24 hours in MeCN ([1]; MeCN): not soluble; also recorded: not sufficient to keep the monomer in solution
COc1ccc(C(OC[C@H]2O[C@@H](n3cnc4c(NC(=O)c5ccccc5)ncnc43)C[C@@H]2O[P@]2O[C@@H](c3ccccc3)[C@H]3CCCN32)(c2ccccc2)c2ccc(OC)cc2)cc1 [D-DNA A] | Yes | Yes | Yes | No | Solubility after 24 hours in MeCN with addition of pyridine [1]: solubility of the monomer is preserved; Solubility after 24 hours in MeCN ([1]; MeCN): not soluble
COc1ccc(C(OC[C@H]2O[C@@H](n3cnc4c(=O)[nH]c(/N=C/N(C)C)nc43)C[C@@H]2O[P@]2O[C@@H](c3ccccc3)[C@H]3CCCN32)(c2ccccc2)c2ccc(OC)cc2)cc1 [D-DNA G] | Yes | Yes | Yes | No | –
COc1ccc(C(OCC23COC(C(n4cnc5c(=O)[nH]c(N=CN(C)C)nc54)O2)C3OP2OC(c3ccccc3)C3CCCN32)(c2ccccc2)c2ccc(OC)cc2)cc1 [D-LNA G] | Yes | Yes | Yes | Yes | –
COc1ccc(C(OC[C@H]2O[C@@H](n3ccc(NC(C)=O)nc3=O)C[C@@H]2O[P@@]2O[C@H](c3ccccc3)[C@@H]3CCCN32)(c2ccccc2)c2ccc(OC)cc2)cc1 [L-DNA C] | Yes | Yes | Yes | No | –
COc1ccc(C(OC[C@H]2O[C@@H](n3cnc4c(=O)[nH]c(/N=C/N(C)C)nc43)C[C@@H]2O[P@@]2O[C@H](c3ccccc3)[C@@H]3CCCN32)(c2ccccc2)c2ccc(OC)cc2)cc1 [L-DNA G] | Yes | Yes | Yes | No | –
COc1ccc(C(OCC23COC(C(n4cnc5c(NC(=O)c6ccccc6)ncnc54)O2)C3OP2OC(c3ccccc3)C3CCCN32)(c2ccccc2)c2ccc(OC)cc2)cc1 [D-LNA A] | Yes | Yes | Yes | No | Solubility after 24 hours in MeCN with addition of pyridine [1]: solubility of the monomer is preserved; Solubility after 24 hours in MeCN ([1]; MeCN): not soluble
COc1ccc(C(OC[C@H]2O[C@@H](n3cc(C)c(=O)[nH]c3=O)C[C@@H]2O[P@@]2O[C@H](c3ccccc3)[C@@H]3CCCN32)(c2ccccc2)c2ccc(OC)cc2)cc1 [L-DNA T] | Yes | Yes | Yes | No | –
